Patent US9403873B2, “Peptides targeting receptor activator of nuclear factor-κB (RANK) and their applications” (UNIVERSITE DE NANTES, priority 2011, dated 2016)
Ends that are not written are not given here. (PEG)5 = linear (PEG)5 polyethylene glycol chain at N-terminal amino acid

Experiments:
[1] = target: T1, hRANK (Homo sapiens, UniProt Q9Y6Q6); assay: Surface plasmon resonance (Biacore) binding to immobilized RANK-Fc; conditions: SPR, 1:1 Langmuir model
T1 construct: For NMR experiments with soluble RANK receptor-Fc (R&D Systems); purchased R&D Systems
T1 sequence (Q9Y6Q6 30-212 limits assumed): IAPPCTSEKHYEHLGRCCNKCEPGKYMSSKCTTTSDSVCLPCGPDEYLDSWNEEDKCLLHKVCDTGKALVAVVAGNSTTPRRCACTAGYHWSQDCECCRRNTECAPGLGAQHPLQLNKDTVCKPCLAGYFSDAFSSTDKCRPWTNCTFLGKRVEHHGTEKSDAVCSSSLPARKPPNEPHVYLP
Method: Biosensor experiments were carried out on a BIAcore 3000 instrument (BIAcore) as published previously (Baud′Huin et al. 2009). Recombinant purified RANKL (2 μg/mL in 5 mM maleate, pH 5.75) or RANK-Fc carrier-free (5 μg/mL in sodium acetate buffer, pH 5.0) were covalently immobilized to the dextran matrix of a CM5 sensor chip (BIAcore) at a flow rate of 5 μL/min. Immobilization levels ranging from 400 to 3000 Response Units (RU) for RANKL or 5000 RU for RANK were obtained. Binding assays were performed at 25° C. in 10 mM Hepes buffer, pH 7.4. The association phase was 180 seconds followed by a dissociation phase in the same buffer. Polypeptides binding studies to RANK or RANKL were determined using single cycle kinetics, starting with 100 μM of the polypeptide of interest followed by 2-fold serial dilutions (ranging from 100 to 0.78 μM). The sensorgrams were fitted to calculate the equilibrium-dissociation constants using the Langmuir 1:1 model with BiaEval 4.1 software (BIAcore). RANK-Fc CF, RANKL and OPG carrier-free were obtained from R&D Systems (Minneapolis, Minn., USA).

[2] = tested on: ovariectomized C57BL/6 mice; assay: Ovariectomy-induced bone loss in mice, micro-CT of tibiae and L4 vertebrae; assay type: in vivo, mouse; conditions: 35 days
From the text: Eight-week-old ovariectomized (OVX) female C57BL6 and non-ovariectomized control mice were purchased from Janvier (Le Genest Saint Ilsle, France). Mice were housed under pathogen-free conditions at the Experimental Therapy Unit (Faculty of Medicine, University of Nantes, France), and animal care and experimental protocols were approved by the French Ministry of Research and were done in accordance with the institutional guidelines of the French Ethical Committee and under the supervision of authorized investigators. After recovery from OVX surgery for 7 days and acclimation, the mice were randomly divided into treatment groups receiving daily subcutaneous injections of a peptide and a control group receiving daily injections of the vehicle (PBS) only. Non-ovariectomized or sham-operated mice were included in the studies as healthy controls. Three experimental protocols were established. Protocol 1: Ovariectomized mice received daily s.c. injections of 10 mg/kg body weight Pep8 (Pep8, n=8) or vehicle only (OVX, n=8). Non-ovariectomized (NOV, n=8) mice served as normal controls. Protocol 2: Ovariectomized mice were randomly divided into four groups (n=8), receiving daily treatments with pegylated Pep8 (Pep8-NPEG5) at 10 mg/kg or 2.5 mg/kg, or unpegylated Pep8 at a dose of 10 mg/kg/d, or the vehicle only. Sham-operated mice (n=5) served as healthy controls. Protocol 3: Ovariectomized mice receiving daily treatments with pegylated Pep8 (Pep8-NPEG8) at 10 mg/kg or 2.5 mg/kg, as described before, or unpegylated Pep8 at a lower dose of 2.5 mg/kg/d, or the vehicle only. Sham-operated mice (n=8) served as healthy controls.
During the experimental period, the body weight of the mice was monitored. […] After treatment for five weeks, mice were anesthetized with isoflurane (2%, 1 L/min) and sacrificed by cervical dislocation. Lumbar vertebrae and tibiae were collected for micro-CT analysis and stored at 4° C. in 4% paraformaldehyde until further analysis. Additionally, internal organs (heart, liver, lungs, kidneys, spleen, intestines and thymus) of some mice (n=3 per group) were harvested and stored for toxicity screening.
Analysis of architectural variables of tibiae and vertebrae of mice was performed using the high-resolution X-ray micro-CT system for small animal imaging SkyScan-1072 (SkyScan, Belgium). After scanning, the image data were transferred to a workstation and the proximal tibiae and the fourth lumbar vertebrae (L4) were rendered for 3-D display and calculation of the structural indices (Parfitt et al. 1987) using the SkyScan analysis system (CT-analyser, CT-volume, SkyScan). For trabecular bone parameters in tibiae, transverse CT slices were obtained in the region of interest in the axial direction from the trabecular bone ca. 0.1 mm below the growth plate to the mid-femur. Contours were defined and drawn close to the cortical bone. The trabecular bone was then removed and analyzed separately. Fifty slices (1 mm) at approximately […] distal to the growth plate of the proximal ends of the tibiae were used for analysis. […] The threshold level for the measurements was set at 55 for the analyses. The analysis of the specimens involved the following bone measurements: bone volume fraction (BV/TV, %), trabecular number (TbN), trabecular thickness (TbTh) and trabecular spacing (TbSp).

Substance	Kd ([1]; 25° C., pH 7.4, read-out: binding affinity (Kd) to hRANK) [µM]	kon ([1]; read-out: association rate constant (kon)) [M⁻¹ s⁻¹]	koff ([1]; read-out: dissociation rate constant (koff)) [s⁻¹]	protection against OVX-induced trabecular bone loss (μCT, tibiae) ([2]; 2.5 mg/kg/d s.c.)	trabecular BV/TV and TbN, tibiae ([2]; 2.5 mg/kg/d, vs vehicle)	protection against OVX-induced trabecular bone loss (μCT) ([2]; 10 mg/kg/d s.c.)
ELASYIIITQLG [Pep1, ELASYIIITQLG]	20.6	13.5	0.000278	–	–	–
Pep8-NPEG5: Pep8 carrying a linear (PEG)5 polyethylene glycol chain at the N-terminal amino acid ({(PEG)5}-NVLKLCSGE)	–	–	–	almost as effective	significantly increasing	attenuated bone loss in OVX mice to the same extent as treatment with the unpegylated peptide
